SMILES strings stand for the structures. Some results are limits rather than exact numbers.

Results on 2 compounds are retold here after patent US20040224995A1 (University of North Texas Health Science Center at Fort …, priority 2003, published 2004).

One data set has as its system HT-22 cells. As to the kind of experiment: HT-22 cell viability during glutamate exposure (calcein AM assay). Type of data set: cell-based. Particulars: for neuroprotection after withdrawal of compound-containing medium: 24 h preincubation, medium washed away, then glutamate (15 mM); for concentration at which toxicity was observed: HT-22, glutamate experiments; for neuroprotection against glutamate insult (cell viability): HT-22, 24 h preincubation before glutamate. The source says: Although not wanting to be bound by theory, the toxicity of glutamate in HT-22 (32) and C6 glioma (33) cell lines is mediated through oxidative stress. HT-22 cells lack ionotropic N-methyl-D-aspartate (“NMDA”) glutamate receptors, and the glutamate-induced cell death appears to occur via a slow onset oxidative stress (32,34,35). Glutamate blocks cystine uptake by inhibiting the glutamate/cystine antiporter in both HT-22 (32) and C6 glioma (33) cell lines. Since cysteine is required for glutathione (“GSH”) synthesis, the intracellular concentration of GSH decreases as a consequence. BSO depletes intracellular glutathione by inhibiting γ-glutamylcysteine synthetase, the rate-limiting enzyme in glutathione synthesis (33). […] Troglitazone further protected HT-22 (FIG. 14) and RGC-5 (FIG. 15) against BSO. The cell viability was taken at time points around about 14 to 24 hours post-insult time. In some of the experiments, the viability of cells was determined using 2.5 μM calcein AM assay in phosphate-buffered saline (PBS 1×). After 25 minutes of incubation, live cells were distinguished by the presence of intracellular esterase activity, which cleaves the calcein AM dye, producing a bright green fluorescence, as shown in FIG. 22. Viability was measured in Relative Fluorescent Units (“RFU”), and expressed as percentage of vehicle-treated control values.
15d-PGJ2 and two TZD's (e.g. troglitazone and ciglitazone) were tested for their ability to protect HT-22 cells against glutamate toxicity. […] HT-22 cells were treated with 15-dPGJ2 twenty-four hours prior to a glutamate insult (15 mM). […] The data of FIG. 24 was quantified using the calcein AM assay (see FIG. 22). Results are expressed in % survival of the control (non-glutamate-treated) cultures. DMSO received the vehicle only for 15d-PGJ2. Shown are mean±SEM for 6. The asterisk (“*”) indicates p<0.05 vs. respective control.
In order to conduct these experiments, the following compounds: PGA1; PGA2; PGJ2; Δ^12PGJ2; and 15d-PGJ2 were ordered from Biomol, Plymouth Meeting, Pa. HT-22, an immortalized mouse hippocampal cell line, C6 rat glioma, RGC-5 retinal ganglion cells were used. Cells were grown to confluence in DMEM media, and supplemented with 10% charcoal/dextran-treated fetal bovine serum (“FBS”), and […] gentamycin at 37° C. under 95% air, 5% CO2. HT-22, C6, and RGC-5 cells were plated at a density of 50,000, 35,000, and 10,000 cells/ml, respectively, in 96-well plates. Wells were pre-treated with cyclopentenone PGs at various times prior to being subjected to glutamate, hydrogen peroxide (H2O2), or BSO insults.
The WY-14643, Ciglitazone, Troglitazone, 9-cis retinoic acid, and 15d-PGJ2 compounds were purchased from Biomol (Plymouth Meeting, Pa.). L-165041 and L-783483 were kindly provided by Merck Laboratories. The cell lines used were HT-22, an immortalized mouse hippocampal cell line, and SK—N—SH, a human neuroblastoma cell line. The HT-22 cells were obtained from David Schubert (Salk Institute, San Diego, Calif.). The HT-22 line was originally selected from HT-4 cells based on glutamate sensitivity. HT-4 cells were immortalized from primary hippocampal neurons using a temperature-sensitive SV-40 T antigen (Morimoto and Koshland, 1990). SK—N—SH were obtained from ATCC (Manassas, Va.). HT-22 and SK—N—SH cells were grown to confluence in DMEM and RPMI-1640 media, respectively, and supplemented with 10% charcoal/dextran-treated fetal bovine serum (FBS), and 5 mg/ml gentamycin at 37° C. under 95% air, 5% CO2. HT-22 cells were plated at a density of 50,000 cells/ml (5,000 cells/well), and SK—N—SH were plated at a density of 120,000 to 150,000 cells/ml (12,000 to 15,000 cells/well) in 96-well plates. In most studies, wells were pre-treated with PPAR ligands over a wide dose range at various times prior to being subjected to either glutamate, hydrogen peroxide (H2O2), or serum deprivation insults. In some studies, the insults were applied prior to the addition of the PPAR ligand. […]

Another data set relates to SK—N—SH cells. As to the kind of experiment: SK-N-SH H2O2 and serum deprivation insults. Type of data set: cell-based, human. How it is done:
Additionally, the effects of pretreatment with PPARγ agonists on H2O2 and serum deprivation toxicities were studied in SK—N—SH cells. After showing that protection in HT-22 cells was insult-type specific, we investigated whether it was also cell-type specific. We used SK—N—SH, a human neuroblastoma cell lines, and tested whether 15d-PGJ2 and troglitazone would protect SK—N—SH against H2O2 and serum deprivation insults. […] Higher concentrations (>10 μM and >20 μM) of 15dPGJ2 and troglitazone, respectively, were toxic to SK—N—SH cells.
The WY-14643, Ciglitazone, Troglitazone, 9-cis retinoic acid, and 15d-PGJ2 compounds were purchased from Biomol (Plymouth Meeting, Pa.). L-165041 and L-783483 were kindly provided by Merck Laboratories. The cell lines used were HT-22, an immortalized mouse hippocampal cell line, and SK—N—SH, a human neuroblastoma cell line. The HT-22 cells were obtained from David Schubert (Salk Institute, San Diego, Calif.). The HT-22 line was originally selected from HT-4 cells based on glutamate sensitivity. HT-4 cells were immortalized from primary hippocampal neurons using a temperature-sensitive SV-40 T antigen (Morimoto and Koshland, 1990). SK—N—SH were obtained from ATCC (Manassas, Va.). HT-22 and SK—N—SH cells were grown to confluence in DMEM and RPMI-1640 media, respectively, and supplemented with 10% charcoal/dextran-treated fetal bovine serum (FBS), and 5 mg/ml gentamycin at 37° C. under 95% air, 5% CO2. HT-22 cells were plated at a density of 50,000 cells/ml (5,000 cells/well), and SK—N—SH were plated at a density of 120,000 to 150,000 cells/ml (12,000 to 15,000 cells/well) in 96-well plates. In most studies, wells were pre-treated with PPAR ligands over a wide dose range at various times prior to being subjected to either glutamate, hydrogen peroxide (H2O2), or serum deprivation insults. In some studies, the insults were applied prior to the addition of the PPAR ligand.
The cell viability assays were conducted about 14 to 24 hours post-insult time, viability of cells was determined using 2.5 μM Calcein AM assay in phosphate-buffered saline (PBS). After 25 minutes of incubation, live cells were distinguished by the presence of intracellular esterase activity, which cleaves the calcein AM dye, producing a bright green fluorescence. Viability was measured in Relative Fluorescent Units (“RFU”), and expressed as percentage of vehicle-treated control values. The calcein assay was designed to produce results that accurately reflect viable cell numbers. At cell concentrations below 10,000 cells per well (96-well plate) a linear relationship between RFU and cell number is achieved (r^2=0.9997, data not shown).

`CCCCC/C=C/C=C1/C(=O)C=C[C@@H]1C/C=C\CCCC(=O)O` [15d-PGJ2, 15-deoxy-Δ^12,14-PGJ2]: in the data set on HT-22 cells, the “neuroprotection after withdrawal of compound-containing medium” value is on record as “protected in a dose dependent manner”, the “concentration at which toxicity was observed” value is at least 10 µM and the “neuroprotection against glutamate insult (cell viability)” value is on record as “dose-dependent protection”. The “neuroprotective effect of prostaglandins against glutamate toxicity” value with HT-22 cells (added 24 h before glutamate (15 mM), viability 15 h later) is listed as “potent neuroprotective effect”. Moreover, the “neuroprotection when added with or after glutamate” value in the data set with HT-22 cells (added at same time as glutamate or up to ten hours thereafter) is on record as “failed to display any neuroprotective effects”. Further, the “exposure time required to achieve significant neuroprotection” value in the data set on HT-22 cells (preincubation before glutamate (15 mM), 5 μM) is “four to six”. In addition, in the data set with SK—N—SH cells, the “concentrations toxic to SK-N-SH cells” value was over 10 µM; the “protection against H2O2 and serum deprivation insults” value is “Neither of the compounds protected”.

For the compound `Cc1c(C)c2c(c(C)c1O)CCC(C)(COc1ccc(CC3SC(=O)NC3=O)cc1)O2` (stereo not shown) [troglitazone], in the data set on HT-22 cells, the “neuroprotection after withdrawal of compound-containing medium” value is “loss of neuroprotection”, the “concentration at which toxicity was observed” value was at least 20 µM and the “neuroprotection against glutamate insult (cell viability)” value is reported as “dose-dependent protection”. Moreover, the “protection versus time of administration prior to glutamate insult” value in the data set with HT-22 cells (administered 0 to 10 hours prior to insult) was “equally protective”. Moreover, the “time post glutamate insult up to which neuroprotective effects remained unaltered” value with HT-22 cells (post-treatment 0 to 10 hours after glutamate) is listed as “up to 6 hours”. The “protection at 8 and 10 hours post glutamate insult” value in the data set with HT-22 cells (post-treatment, extent of protection decreased) is “still significantly protected”. For the same compound, in the data set with SK—N—SH cells, the “concentrations toxic to SK-N-SH cells” value is over 20 µM; the “protection against H2O2 and serum deprivation insults” value is “Neither of the compounds protected”.
